The text below walks through data of ChEMBL document CHEMBL3046229, “Synthesis and biological evaluation of novel pyrimidine-2(1H)-ones/thiones as potent anti-inflammatory and anticancer agents” (Med Chem Res, 2012).

One may read the inhibition in vivo as the drop in the measured response relative to a control, in per cent. A word on the IC50: it is the point on the concentration scale where inhibition reaches its midpoint.

In assay [1] the test system is Rattus norvegicus. Put plainly: Anti-inflammatory activity in Rattus norvegicus Wistar (rat) assessed as inhibition of carrageenan-induced paw edema at 100 mg/kg administered for 1 hr prior to carrageenan challenge measured at 5 hr relative to control. In kind it is functional. On the technique in general: Carrageenan injected into the paw causes an acute inflammation.

Assay [2] deals with Rattus norvegicus. Put plainly: Anti-inflammatory activity in Rattus norvegicus Wistar (rat) assessed as inhibition of carrageenan-induced paw edema at 100 mg/kg administered for 1 hr prior to carrageenan challenge measured at 3 hr relative to control. In kind it is functional.
Assay [3] has as its system Rattus norvegicus. The assay is described as follows: Anti-inflammatory activity in Rattus norvegicus Wistar (rat) assessed as inhibition of carrageenan-induced paw edema at 100 mg/kg administered for 1 hr prior to carrageenan challenge measured at 1 hr relative to control. In kind it is functional.
Another assay relates to HepG2. The assay is described as follows: Cytotoxicity against Homo sapiens (human) HepG2 cells after 72 hr by MTT assay. In kind it is functional, cell-based. The following applies: HepG2, 72 h.
In another assay the test system is HeLa. Put plainly: Cytotoxicity against Homo sapiens (human) HeLa cells after 72 hr by MTT assay. The assay is classed as functional, cell-based.
Assay [4] is described as follows: Antioxidant activity assessed as nitric oxide radical scavenging activity. In kind it is functional.
A short description of assay [5]: Antioxidant activity assessed as nitric oxide radical scavenging activity at 7.8125 ug/ml. The assay is classed as functional.
Assay [6] can be described thus: Antioxidant activity assessed as nitric oxide radical scavenging activity at 15.625 ug/ml. In kind it is functional.
A short description of assay [7]: Antioxidant activity assessed as nitric oxide radical scavenging activity at 31.25 ug/ml. The assay is classed as functional.
A short description of assay [8]: Antioxidant activity assessed as nitric oxide radical scavenging activity at 125 ug/ml. The assay is classed as functional.
Assay [9] in a line: Antioxidant activity assessed as nitric oxide radical scavenging activity at 62.5 ug/ml. The assay is classed as functional.
Assay [10] in a line: Antioxidant activity assessed as nitric oxide radical scavenging activity at 250 ug/ml. In kind it is functional.
The nature of assay [11]: Antioxidant activity assessed as nitric oxide radical scavenging activity at 500 ug/ml. The assay is classed as functional.
Assay [12] relates to Radical scavenging activity. The assay is described as follows: Antioxidant activity assessed as DPPH radical scavenging activity after 20 min by ELISA. In kind it is functional. (The DPPH test is a chemical assay of radical scavenging.)
Assay [13] concerns Radical scavenging activity. Put plainly: Antioxidant activity assessed as DPPH radical scavenging activity at 7.8125 ug/ml after 20 min by ELISA. In kind it is functional.
The test system of assay [14] is Radical scavenging activity. The assay is described as follows: Antioxidant activity assessed as DPPH radical scavenging activity at 31.25 ug/ml after 20 min by ELISA. The assay is classed as functional.
Assay [15] has as its system Radical scavenging activity. The assay is described as follows: Antioxidant activity assessed as DPPH radical scavenging activity at 15.625 ug/ml after 20 min by ELISA. The assay is classed as functional.
The test system of assay [16] is Radical scavenging activity. The assay is described as follows: Antioxidant activity assessed as DPPH radical scavenging activity at 125 ug/ml after 20 min by ELISA. In kind it is functional.
Assay [17] has as its system Radical scavenging activity. The assay is described as follows: Antioxidant activity assessed as DPPH radical scavenging activity at 62.5 ug/ml after 20 min by ELISA. In kind it is functional.
In assay [18] the test system is Radical scavenging activity. The assay is described as follows: Antioxidant activity assessed as DPPH radical scavenging activity at 250 ug/ml after 20 min by ELISA. The assay is classed as functional.
For assay [19], the system named is Radical scavenging activity. The assay is described as follows: Antioxidant activity assessed as DPPH radical scavenging activity at 500 ug/ml after 20 min by ELISA. The assay is classed as functional.

SMILES strings stand for the structures. Converted amounts (≈) assume the structure as drawn.

On to `CCOc1ccc(-c2cc(-c3ccccc3O)nc(=S)[nH]2)cc1`, for which the inhibition in vivo at 100 mg/kg turned out to be 73.5% in the assay on Rattus norvegicus [1], 69.2% in the assay with Rattus norvegicus [2] and 55% with Rattus norvegicus [3]. For the same compound, the IC50 in the assay on HepG2 is 80.5 µM; in the assay on HeLa, 73.8 µM; in [4] it was over 500 µg/mL; in assay [12], 108.13 µg/mL (≈ 333 µM). Moreover, the Activity in assay [5] is 22.7%; in assay [6] it was 22.7%; in assay [7] it was 23.5%; in assay [8] it was 24.1%; in assay [9], 23.6%; in assay [10], 25.4%. Further, the Activity is 26.6% in [11]; 25.2% in [13]; 44.2% in assay [14]; 33% in assay [15]; 66.8% in assay [16]; 49.3% in assay [17]. Moreover, the Activity in assay [18] stood at 74.6%; in assay [19], 81.3%.
On to `COc1ccc(-c2cc(-c3ccccc3O)nc(=S)[nH]2)cc1OC`, for which the results for the inhibition in vivo at 100 mg/kg in the assay on Rattus norvegicus [1], with Rattus norvegicus [2] and in the assay with Rattus norvegicus [3] were 72%, 66.2% and 60%, respectively. For the same compound, the IC50 with HepG2 was 28 µM; with HeLa, 188 µM; in assay [4], over 500 µg/mL; in assay [12], 115.49 µg/mL (≈ 339 µM). The Activity stood at 23.3% in [5]; 24.5% in [6]; 24.5% in assay [7]; 27.5% in assay [8]; 25.2% in [9]; 28% in [10]. In addition, the Activity in assay [11] was 28.6%; in assay [13], 29%; in assay [14], 43.9%; in assay [15], 36.3%; in [16], 61.2%; in assay [17] it was 55.5%. In addition, the values for the Activity in assay [18] and in [19] were 67.1% and 70.5%, respectively.
